According to publication PMC2752035 (Bioorganic & medicinal chemistry, 2009):

Biological target: sarco/endoplasmic reticulum calcium ATPase (SERCA) (Oryctolagus cuniculus, UniProt P04191)
Assay: SERCA-catalyzed ATP hydrolysis, coupled PK/LDH NADH oxidation assay

sarco/endoplasmic reticulum calcium ATPase (SERCA), sequence (P04191 1-994 isoform P04191-2): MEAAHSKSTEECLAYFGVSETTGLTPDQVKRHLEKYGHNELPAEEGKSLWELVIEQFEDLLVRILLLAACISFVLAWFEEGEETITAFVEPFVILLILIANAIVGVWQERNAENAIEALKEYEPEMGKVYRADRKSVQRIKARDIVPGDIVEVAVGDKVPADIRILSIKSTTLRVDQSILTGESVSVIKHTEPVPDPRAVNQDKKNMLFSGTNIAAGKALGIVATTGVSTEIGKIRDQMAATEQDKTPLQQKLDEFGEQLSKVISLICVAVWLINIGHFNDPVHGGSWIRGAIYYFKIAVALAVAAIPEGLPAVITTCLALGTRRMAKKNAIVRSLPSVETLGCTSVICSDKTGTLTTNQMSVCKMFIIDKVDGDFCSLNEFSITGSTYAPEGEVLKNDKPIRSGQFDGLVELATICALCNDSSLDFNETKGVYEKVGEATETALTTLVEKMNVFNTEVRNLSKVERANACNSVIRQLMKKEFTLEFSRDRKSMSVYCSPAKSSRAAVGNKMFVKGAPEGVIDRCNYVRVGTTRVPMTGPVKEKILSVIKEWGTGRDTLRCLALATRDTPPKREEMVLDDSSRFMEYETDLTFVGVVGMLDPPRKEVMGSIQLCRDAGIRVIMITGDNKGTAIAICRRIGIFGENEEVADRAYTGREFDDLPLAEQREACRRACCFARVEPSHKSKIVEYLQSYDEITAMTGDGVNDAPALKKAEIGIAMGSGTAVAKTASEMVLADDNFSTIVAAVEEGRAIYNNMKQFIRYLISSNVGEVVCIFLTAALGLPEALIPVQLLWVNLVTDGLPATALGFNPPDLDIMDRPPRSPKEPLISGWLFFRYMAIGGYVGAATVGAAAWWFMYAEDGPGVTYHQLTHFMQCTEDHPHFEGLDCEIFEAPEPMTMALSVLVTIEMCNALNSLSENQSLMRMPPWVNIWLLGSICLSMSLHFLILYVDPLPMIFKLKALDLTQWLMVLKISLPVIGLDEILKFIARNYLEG

- SERCA inhibition (activity in words): inactive
SMILES: CC(C)(C)OC(=O)NCCCC(=O)Oc1cc(C(C)(C)C)c(OC(=O)CCCNC(=O)OC(C)(C)C)cc1C(C)(C)C [8a]
